The structures appear in SMILES notation.

The subject of the experiment is MCA-205 sarcoma. The experiment in a line: Subcutaneous MCA-205 sarcoma tumor model (anti-PD-1 sensitive), SPF-reared mice. The experiment is classed as in vivo, C57BL/6 mice. The note with it: 0.85 mg/kg per mouse daily oral gavage; in contrast to castalagin. Here is the method:
FIG. 1A is a schematic of the protocol used to study the effect of a Camu camu extract (CC) alone and additive effect when combined to anti-PD-1 therapy in a murine tumor model sensitive to anti-PD-1 therapy. Syngeneic C57BL/6 mice were implanted with 0.8×10^6 MCA-205 sarcoma, subcutaneously and treated intraperitoneally (i.p.) when tumors reached 20 to 35 mm^2 in size with anti-PD-1 mAb (250 μg/mouse; clone RMP1-14,) or isotype control (clone 2A3) with or without daily oral gavage with 200 mg/kg of [NT] Powder from SunFood). Murine studies. All animal studies were approved by the Institutional Animal Care Committee (CIPA) and carried out in compliance with the Canadian Council on Animal Care guidelines. Murine experiments were conducted using seven-week-old female C57BL/6 mice, obtained from Charles River, Canada. Germ-free female C57BL/6 mice were purchased from the International Microbiome Centre Germ-Free Facility (University of Calgary, Canada) and maintained at the CR-CHUM Germ-Free Facility. Cell culture, reagents and tumor cell lines. MCA-205 fibrosarcoma cells and E0771 mammary adenocarcinoma cells, class I MHC H-2b syngeneic cell lines for C57BL/6 mice, were used for this study. MCA-205 cells were cultured at 37° C. in the presence of 5% CO2 in Roswell Park Memorial Institute (RPMI) 1640 (Gibco-lnvitrogen) containing 10% Fetal bovine serum (FBS) (Wisent), 2 mM L-glutamine (Wisent), 100 IU/ml penicillin/streptomycin (Wisent), 1 mM sodium pyruvate (Wisent) and MEM non-essential amino acids (Gibco-lnvitrogen). E0771 cells were cultured at 37° C. in the presence of 5% CO2 in Dulbecco's Modified Eagle's Medium (DMEM) (Gibco-lnvitrogen) containing 10% FBS (Wisent), 2 mM L-glutamine, 100 IU/ml penicillin/streptomycin (Wisent), 1 mM sodium pyruvate (Wisent). Subcutaneous model of MCA-205 sarcoma and E0771 breast cancer. Syngeneic C57BL/6 mice were implanted with 0.8×10^6 MCA-205 or 0.5×10^6 E0771 subcutaneously. When tumors reached 20 to 35 mm^2 in size, mice were treated four times (or two times for flow cytometry analysis, see section below) intraperitoneally (i.p.) every three day with anti-PD-1 monoclonal antibody (mAb) (250 μg/mouse; clone RMP1-14, BioXcell) or isotype control (clone 2A3, BioXcell). Upon treatment initiation, mice received a daily oral gavage with the following products: Myrciaria dubia, [NT] raw extract (Sunfood) (200 mg/kg per mouse), fractions from the extraction round 1 (P, INT, NP, Insol) (40.18 mg/kg per mouse), fractions from the extraction round 2 (P1, P2, P3 and P4) (equivalent to fraction P dose of 40.18 mg/kg per mouse), […] (extracted from CC, see isolation process below) (0.85 mg/kg per mouse), ellagic acid (0.85 mg/kg per mouse) (Sigma-Aldrich), urolithin A (0.85 mg/kg per mouse) (Sigma-Aldrich), […] (0.5 mg/kg per mouse) (PhytoProof®, Sigma-Aldrich) and castalagin at different concentration: 1/8, 1/6, 1/4, 1/2 of the standard concentration, at the standard concentration (0.85 mg/kg per mouse), 1.5-fold (1.25 mg/kg per mouse) and three-fold increase concentration (2.55 mg/kg per mouse) (PhytoProof©, Sigma-Aldrich or isolated from food grade oak, see isolation process below). In the control group mice received daily oral gavage with water (100 μL) Tumor area was routinely monitored every three days by means of a caliper. In the depletion experiments, we used the anti-CD8 mAb (150 μg/mouse; clone 53-6.7, BioXcell) or isotype control (clone 2A3, BioXcell.

As for `O=C1OC[C@H]2OC(=O)c3cc(O)c(O)c(O)c3-c3c(O)c(O)c(O)c4c3C(=O)O[C@H]([C@H]3OC(=O)c5c-4c(O)c(O)c(O)c5[C@H]3O)[C@@H]2OC(=O)c2cc(O)c(O)c(O)c2-c2c1cc(O)c(O)c2O` [vescalagin, reference compound], the “antitumor effect (tumor size at sacrifice)” value (“antitumor effect” for short) was “no antitumor effects were observed”.

In the case of `O=c1oc2cc(O)ccc2c2ccc(O)cc12` [urolithin A, reference compound], the “antitumor effect” value is given as “no antitumor effects were observed”.

For the compound `O=c1oc2c(O)c(O)cc3c(=O)oc4c(O)c(O)cc1c4c23` [ellagic acid, reference compound], the “antitumor effect” value is “no antitumor effects were observed”.

Source of the values: patent US20230075822A1, “USE OF CASTALAGIN OR ANALOGS THEREOF FOR ANTI-CANCER EFFICACY AND TO INCREASE THE RESPONSE TO IMMUNE CHECKPOINT INHIBITORS” (THE ROYAL INSTITUTION FOR THE ADVANCEMENT OF …, priority 2020, published 2023).
